Data from the METLIN SMRT retention time set (Domingo-Almenara et al. 2019).

Test: gradient 5% acetonitrile 3 min, to 50% in 2 min, to 85% in 15 min, held 3 min, 100 µL/min
Conditions: column: Zorbax Extend-C18 2.1 x 50 mm; eluents: water / acetonitrile, 0.1% formic acid
Procedure, shortened: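 Using water and acetonitrile that each contained 0.1% formic acid, mixtures of ~100 pure standards were separated at 100 μL/min on a Zorbax Extend-C18 column (2.1 × 50 mm, 1.8 μm). The HPLC fed a quadrupole time-of-flight mass spectrometer working in positive and negative ionization mode, with dead and dwell volumes of 40 μL and 900 μL. Data were acquired over 3 months. Retention time was read from computationally picked adduct peaks after manual inspection of each.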

Row | RP-LC retention time | SMILES
1 | 1010 s | CCc1nn2c(CNS(=O)(=O)Cc3ccccc3Cl)c(-c3ccccc3)nc2s1
2 | 907 s | Cc1cccc(-c2nocc2CCC(=O)NCc2ccccc2)c1
3 | 743 s | CC(C)(C)OC(=O)N1CCN(c2ncc(C(=O)NCc3ccccc3)c(N)n2)CC1
4 | 564 s | Cc1nn(C)cc1CN1CCCCC1CCn1cc(-c2ccccc2)nn1 (centres undefined)
5 | 639 s | CCN1CCN(CCNC(=O)C2CCN(c3nccnc3Sc3ccc(C)cc3)CC2)CC1
6 | 992 s | COc1ccc(-c2noc(Cc3nnc(-c4cccc(OC)c4)o3)n2)cc1
7 | 764 s | CN1C(=O)c2cccn2CC1CNC(=O)c1n[nH]c(=O)c2ccccc12 (centres undefined)
8 | 624 s | COc1cc2c(cc1OC)C(C(=O)NCCCN1CCC(C)CC1)C1c3ccccc3CCN1C2=O (centres undefined)
9 | 585 s | Nc1nc(N2CCN(c3ccccn3)CC2)ncc1C(=O)Nc1ccccc1
10 | 578 s | CN1CCN(CCNC(=O)CN2C(=O)C3CCCCN3c3ccc(C(=O)N(C)C)cc32)CC1 (centres undefined)
11 | 644 s | COCCC(=O)N1CCCn2nc(-c3cccc(OC)c3)cc2C1
12 | 894 s | O=C(NCc1nc(-c2ccccc2)no1)c1csc(-n2cccc2)n1
13 | 734 s | O=C(c1cccs1)N1CCN(c2cc(-c3ccccc3)[nH]n2)CC1
14 | 876 s | Cc1cc(NC(=O)C2CCN(S(=O)(=O)c3cn(C(C)C)cn3)CC2)ccc1Br
15 | 1060 s | CCn1cc2c3c(cccc31)CN(C(=O)Nc1cccc(Cl)c1F)CC2
16 | 722 s | CCC(=O)Nc1ccc(-n2cnc(C(=O)NC(C)c3ccccc3)c2)nc1 (centres undefined)
17 | 1290 s | CCCCn1c(=O)c2ccccc2n(Cc2nc(-c3ccc(C)c(C)c3)no2)c1=O
18 | 812 s | O=C1CCCC2=C1C(c1ccccc1Cl)C1=C(CCCC1=O)O2

Row | RP-LC retention time | SMILES
19 | 617 s | COc1ccc(NC(=O)Cn2nc3nc(N4CCCC4)ccn3c2=O)cc1OC
20 | 1040 s | COc1ccccc1-c1cc2c(=O)n(Cc3nc(-c4cccc(F)c4)no3)ccn2n1
21 | 814 s | CSc1cccc(NC(=O)C2CCN(C(=O)C3Sc4ccccc4NC3=O)CC2)c1 (centres undefined)
22 | 619 s | COc1cccc(N2CC(c3nc4ccccc4n3CC(=O)N3CCCC3)CC2=O)c1 (centres undefined)
23 | 1010 s | Cc1noc(C)c1-c1ccc(S(=O)(=O)NC2CCCCCC2)cc1
24 | 934 s | COc1ccc(NC(=O)NC(C(=O)N2CCc3ccccc32)C(C)C)c(OC)c1 (centres undefined)
25 | 1140 s | COc1ccc(-c2nc(-c3ccc(S(=O)(=O)N4CCCC4)cc3)no2)cc1
26 | 665 s | c1ccc(-c2nc(-c3ccnc(N4CCOCC4)c3)no2)nc1
27 | 758 s | COCCC1CCN(C(=O)c2cc(-c3ccccc3)n[nH]2)CC1
28 | 848 s | O=C(Cn1nc(-c2nc(-c3ccc(Cl)cc3)no2)ccc1=O)N1CCCC1
29 | 653 s | CCc1ccc(S(=O)(=O)c2cnc3ccc(OC)cc3c2N2CCN(C)CC2)cc1
30 | 615 s | Cc1cccc(-c2nc3nc(C)cc(N(CCO)CCO)n3n2)c1
31 | 726 s | CC(C)n1cnc(S(=O)(=O)N2CCCC(C(=O)Nc3cccc(F)c3)C2)c1 (centres undefined)
32 | 678 s | CCc1ccc2c(c1)-c1ccccc1S(=O)(=O)N2CC(=O)N1CCN(CC)CC1
33 | 947 s | O=c1n(Cc2ccccc2F)nc2c(S(=O)(=O)N3CCc4ccccc4C3)cccn12
34 | 658 s | Cn1c(N2CCCN(C(=O)COc3ccc(Cl)cc3)CC2)cc(=O)n(C)c1=O
35 | 1020 s | O=c1ccc(-c2cccc(Br)c2)nn1Cc1nc(-c2cccs2)no1

The remaining lines, values behind:

Row | SMILES | RP-LC retention time
36 | CCCN(CCC)CCNC(=O)C1CCC(=O)N(c2ccc(OC)cc2)C1c1ccc(F)cc1 (centres undefined) | 649 s
37 | Cc1ccc(-c2nc(NCc3cccnc3)ncc2C(=O)O)cc1 | 587 s
38 | CNC(=O)[C@@H]1CN(S(=O)(=O)C(C)C)C[C@H]1COC | 579 s
39 | O=C(NC1CCCCC1)C1CCN(C(=O)C2Sc3ccccc3NC2=O)CC1 (centres undefined) | 732 s
40 | Cc1nc2cc(N3CC(C(=O)Nc4ccc(Br)c(C)c4)CC3=O)ccc2o1 (centres undefined) | 846 s
41 | O=C(Cn1cnc2nc3c(cc2c1=O)CCCC3)N1CCN(c2cccc(C(F)(F)F)c2)CC1 | 881 s
42 | NS(=O)(=O)c1ccc(NC(=O)NC2CC(=O)N(c3ccc(Cl)cc3)C2)cc1 (centres undefined) | 657 s
43 | COc1ccc(NC(=O)N2c3ccccc3NC3=C(C(=O)CCC3)C2c2ccco2)c(OC)c1 (centres undefined) | 816 s
44 | COc1cc(C[C@H](C)N)c(OC)cc1I | 705 s
45 | CCOc1ccc(-c2nc(C3CC(=O)N(c4ccc(Cl)cc4)C3)no2)cc1 (centres undefined) | 1130 s
46 | CC(C)CNC(=O)CCc1nc2ccccc2n(CC(=O)Nc2ccc(C(C)C)cc2)c1=O | 949 s
47 | COc1ccc(NC(=O)c2noc3c2CCCC3)cc1OC | 842 s
48 | CC1CCN(c2ncc3c(n2)CCC(C(=O)NCc2ccc(OC(C)C)cc2)C3)CC1 (centres undefined) | 908 s
49 | CCOCCCNCc1ccc(-c2cccc(Cl)c2)o1 | 687 s
50 | Cc1[nH]c(C(=O)N2CCC(CC(=O)N3CCCCCC3)CC2)c(C)c1C(=O)OC(C)C | 879 s
51 | Cc1cnc(CC2CCN(C(=O)C(C)C)C2)n1C(C)C (centres undefined) | 578 s
52 | Cc1cccc(-c2ncccc2CNS(=O)(=O)c2ccc(Cl)s2)c1 | 785 s
53 | O=C(Nc1ccc(F)c(F)c1)c1cc(C2CC2)on1 | 860 s
54 | CCn1cc(C(=O)Nc2cccc(F)c2)c(S(=O)(=O)N2CCSCC2)n1 | 845 s
55 | COc1ccc(NC(=O)N2[C@H]3CC[C@@H]2c2cnc(C)nc2C3)c(C)c1 | 645 s
56 | CN1C(=O)C(C)(C(=O)Nc2ccccc2F)Oc2cccnc21 (centres undefined) | 780 s
57 | Cc1ccc(C(O)Cn2ccn3nc(-c4cccs4)cc3c2=O)cc1 (centres undefined) | 893 s
58 | CCOc1cc(C(=O)Nc2c(-c3ccc(OC)cc3)nc3cc(C)ccn23)cc(OCC)c1OCC | 803 s
59 | Cc1c(C(=O)Nc2ccc(N3CCC(N4CCOCC4)CC3)c(C#N)c2)cnn1-c1ccc(Cl)cc1 | 800 s
60 | CCCCN(C)C(=O)c1ccc2c(c1)NC(=O)C(CC(C)C)N2 (centres undefined) | 581 s
61 | CCOCc1cc(OC)c(-c2ccc(C[C@H](NC(=O)c3c(F)cccc3F)C(=O)O)cc2)c(OC)c1 | 1020 s
62 | CCCNC(=O)c1cc2c(s1)N(CC1CC1)CCCC2 | 1020 s

Row | SMILES | RP-LC retention time
63 | CCc1ccc(-n2ncc3c(=O)n(Cc4nc(-c5ccc(F)c(Cl)c5)no4)cnc32)cc1 | 1250 s
64 | C=CCN1C(=O)COc2ccc(-c3csc(NC(=O)/C=C/c4ccc(OCC)c(OC)c4)n3)cc21 | 1050 s
65 | COc1ccc(N2CC(c3noc(-c4ccc(OC)c(F)c4)n3)CC2=O)cc1 (centres undefined) | 856 s
66 | Cc1cc(NS(=O)(=O)c2cn(C(C)C)c3ncccc23)ccc1F | 948 s
67 | COc1ccc2ncc(S(=O)(=O)c3ccc(C)c(Cl)c3)c(OC)c2c1 | 1100 s
68 | O=C(NC1CC1)c1ccc(OCC2CCN(C(=O)Cc3ccc(Cl)cc3)CC2)cc1 | 868 s
69 | O=C(Cn1cnc2ccccc2c1=O)N[C@@H](C(=O)O)c1ccc(O)cc1 | 589 s
70 | Cn1cc(-c2nc(C(=O)Nc3cc(F)ccc3Cl)cs2)c2cccnc21 | 1260 s
71 | Cn1nc(C(=O)N2CCCC2)c2c1CCN(C(=O)CCC(=O)NC1CCCCCC1)C2 | 696 s
72 | COc1ccc(CC(=O)Nc2cnn(-c3ncc(N(C)C)cn3)c2)cc1Cl | 740 s
73 | O=C(Cn1c(=O)cnc2cc(C(=O)NC3CC3)ccc21)Nc1ccccc1C(F)(F)F | 646 s
74 | Cc1ccn2cc(C(=O)NCc3cc(F)ccc3F)nc2c1 | 657 s
75 | COc1cccc2c1oc(=O)c1c(NC(C)=O)nc3c(c12)CCCCC3 | 1020 s
76 | Cc1cccc(C(=O)N2CCN(c3c(C)n(C)c(=O)n(C)c3=O)CC2)c1 | 726 s
77 | CCNC(=O)c1nc2cc(C)c(C)cc2n(C)c1=O | 698 s
78 | Cc1cc(N2CCN(C(=O)C3CCCCC3)CC2)nc(N2CCCC2)n1 | 672 s
79 | CCCOc1ccc(-c2csc(NC(=O)CN3C(=O)CCC3=O)n2)cc1 | 816 s
80 | O=c1c2sccc2n(Cc2nc(-c3ccc(F)c(Cl)c3)no2)c(=O)n1-c1cccc(F)c1 | 1070 s
81 | O=C(Nc1cc(-c2ccccn2)no1)c1ccc2ccccc2n1 | 965 s
82 | O=S(=O)(c1ccc2nc(N3CCN(c4ccc(F)cc4)CC3)ccc2c1)N1CCCCC1 | 1050 s
83 | Cc1ccc2oc(-c3nnc(C(=O)NCCN4CCC(C)CC4)o3)c(C)c2c1 | 674 s
84 | CC(=O)N1CCCC1c1nc(C2CN(S(=O)(=O)C(C)C)C2)no1 (centres undefined) | 635 s
85 | CCCN(C)CC1(O)CCC2(CCN(Cc3ccc(F)cc3)CC2)CC1 | 547 s
86 | CCN1C(=O)COc2ccc(-c3nc(NC(=O)c4cccs4)sc3C)cc21 | 990 s
87 | CN1CCCCCCN(C(=O)c2cccs2)[C@H]2CCC[C@H]2C1=O | 826 s
88 | CCS(=O)(=O)c1nc2ccc(NS(=O)(=O)c3cc(F)ccc3F)cc2s1 | 854 s
89 | O=C(Cn1nc2c(Oc3ccc(F)cc3)nccn2c1=O)NCc1ccccc1 | 770 s
